# According to ChEMBL document CHEMBL1144593, “Bicyclic carbamates as inhibitors of papain-like cathepsin proteases” (Bioorg Med Chem Lett, 2007):
# Activity calls are given as the source filed them. The rule behind the calls is not given here.
# How the values were obtained:
# [1] = target: Procathepsin L (Homo sapiens, UniProt P07711); test: Inhibition of human recombinant cathepsin L
# [2] = target: T1, Pro-cathepsin H (Homo sapiens, UniProt P09668); test: Inhibition of human recombinant cathepsin H
# T1 sequence (P09668 whole entry): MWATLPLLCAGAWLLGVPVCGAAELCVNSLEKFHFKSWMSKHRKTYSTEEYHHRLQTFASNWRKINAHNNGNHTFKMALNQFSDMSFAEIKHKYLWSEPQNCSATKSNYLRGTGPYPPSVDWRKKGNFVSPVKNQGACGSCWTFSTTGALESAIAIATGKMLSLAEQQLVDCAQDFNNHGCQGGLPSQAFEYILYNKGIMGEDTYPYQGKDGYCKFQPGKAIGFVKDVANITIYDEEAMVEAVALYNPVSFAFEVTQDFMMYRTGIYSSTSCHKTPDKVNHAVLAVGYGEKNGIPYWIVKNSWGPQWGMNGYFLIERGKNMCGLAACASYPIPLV
# [3] = target: Trypsin (Homo sapiens) (UniProt P07477+P07478+P35030); test: Inhibition of trypsin; type: protein assay
# [4] = target: T2, Cathepsin F (Homo sapiens, UniProt Q9UBX1); test: Inhibition of human recombinant cathepsin F
# T2 sequence (Q9UBX1 whole entry): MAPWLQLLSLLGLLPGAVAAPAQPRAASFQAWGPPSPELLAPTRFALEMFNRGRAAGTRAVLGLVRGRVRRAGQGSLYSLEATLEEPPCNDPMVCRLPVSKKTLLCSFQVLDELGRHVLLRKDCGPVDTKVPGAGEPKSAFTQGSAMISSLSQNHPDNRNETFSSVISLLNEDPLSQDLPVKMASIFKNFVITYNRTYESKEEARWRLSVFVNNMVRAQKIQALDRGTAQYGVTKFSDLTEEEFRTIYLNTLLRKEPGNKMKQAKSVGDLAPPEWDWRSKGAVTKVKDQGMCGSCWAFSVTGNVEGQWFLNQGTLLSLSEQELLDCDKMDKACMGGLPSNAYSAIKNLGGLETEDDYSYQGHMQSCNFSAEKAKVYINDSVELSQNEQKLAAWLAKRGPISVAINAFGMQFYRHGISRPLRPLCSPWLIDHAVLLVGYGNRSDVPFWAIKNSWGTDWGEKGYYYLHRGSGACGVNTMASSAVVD
# [5] = target: Cathepsin S (Homo sapiens, UniProt P25774); test: Inhibition of human recombinant cathepsin S
# Chain of Cathepsin S (P25774 whole entry): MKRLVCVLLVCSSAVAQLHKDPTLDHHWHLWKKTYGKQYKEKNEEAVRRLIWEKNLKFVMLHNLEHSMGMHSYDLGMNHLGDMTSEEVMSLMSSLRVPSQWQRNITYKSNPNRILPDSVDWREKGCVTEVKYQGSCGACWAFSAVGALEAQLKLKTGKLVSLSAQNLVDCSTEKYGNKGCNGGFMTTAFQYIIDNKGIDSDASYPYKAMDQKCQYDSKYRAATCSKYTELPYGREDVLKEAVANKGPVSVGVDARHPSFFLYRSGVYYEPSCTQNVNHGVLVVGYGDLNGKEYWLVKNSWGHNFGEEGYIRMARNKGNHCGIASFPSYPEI
# [6] = target: T3, Cathepsin L2 (Homo sapiens, UniProt O60911); test: Inhibition of human recombinant cathepsin V
# T3 sequence (O60911 whole entry): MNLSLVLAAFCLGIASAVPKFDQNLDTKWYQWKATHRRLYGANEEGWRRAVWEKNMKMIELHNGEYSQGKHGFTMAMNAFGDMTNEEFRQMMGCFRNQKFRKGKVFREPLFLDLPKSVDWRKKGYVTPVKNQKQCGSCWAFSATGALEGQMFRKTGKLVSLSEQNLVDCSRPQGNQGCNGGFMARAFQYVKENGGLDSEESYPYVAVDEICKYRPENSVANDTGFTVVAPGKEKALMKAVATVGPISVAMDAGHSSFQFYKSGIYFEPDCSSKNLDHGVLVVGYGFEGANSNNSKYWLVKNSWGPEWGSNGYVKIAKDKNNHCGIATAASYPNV
# [7] = target: Dipeptidyl peptidase 1 (Homo sapiens, UniProt P53634); test: Inhibition of human recombinant cathepsin C
# Chain of Dipeptidyl peptidase 1 (P53634 25-134 limits assumed): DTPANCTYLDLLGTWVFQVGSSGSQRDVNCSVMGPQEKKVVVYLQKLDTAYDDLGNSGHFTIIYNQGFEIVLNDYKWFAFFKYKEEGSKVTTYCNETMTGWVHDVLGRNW
# Chain of Dipeptidyl peptidase 1 (P53634 231-394 limits assumed): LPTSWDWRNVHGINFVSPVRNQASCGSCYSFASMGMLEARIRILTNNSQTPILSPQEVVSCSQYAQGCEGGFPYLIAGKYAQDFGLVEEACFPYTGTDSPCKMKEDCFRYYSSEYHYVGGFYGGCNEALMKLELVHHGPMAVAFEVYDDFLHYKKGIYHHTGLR
# Chain of Dipeptidyl peptidase 1 (P53634 395-463 limits assumed): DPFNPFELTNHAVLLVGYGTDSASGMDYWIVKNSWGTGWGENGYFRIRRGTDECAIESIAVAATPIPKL
# [8] = target: Cathepsin B (Homo sapiens, UniProt P07858); test: Inhibition of human recombinant cathepsin B
# [9] = target: Prothrombin (Homo sapiens) (UniProt P00734); test: Inhibition of thrombin
# [10] = target: T4, Cathepsin K (Homo sapiens, UniProt P43235); test: Inhibition of human recombinant cathepsin K
# T4 sequence (P43235 whole entry): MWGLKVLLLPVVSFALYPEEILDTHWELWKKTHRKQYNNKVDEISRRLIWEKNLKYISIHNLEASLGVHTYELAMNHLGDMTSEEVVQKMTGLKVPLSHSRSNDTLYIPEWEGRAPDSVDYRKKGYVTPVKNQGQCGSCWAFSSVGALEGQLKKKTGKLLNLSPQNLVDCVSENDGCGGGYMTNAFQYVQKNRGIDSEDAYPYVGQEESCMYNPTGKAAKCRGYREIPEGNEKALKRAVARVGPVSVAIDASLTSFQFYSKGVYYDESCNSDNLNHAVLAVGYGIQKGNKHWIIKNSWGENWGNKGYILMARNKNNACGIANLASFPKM
# Chain of Procathepsin L (P07711 whole entry): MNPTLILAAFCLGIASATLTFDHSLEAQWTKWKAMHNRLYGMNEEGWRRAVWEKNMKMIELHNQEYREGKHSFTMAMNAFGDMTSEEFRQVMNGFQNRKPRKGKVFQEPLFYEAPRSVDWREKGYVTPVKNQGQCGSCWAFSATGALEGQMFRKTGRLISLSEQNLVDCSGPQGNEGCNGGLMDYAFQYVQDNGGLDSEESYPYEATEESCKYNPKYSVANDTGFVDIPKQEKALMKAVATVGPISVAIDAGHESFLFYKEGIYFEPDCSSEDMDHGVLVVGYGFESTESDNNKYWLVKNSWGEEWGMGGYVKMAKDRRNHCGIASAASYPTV
IC50 [1],IC50 [2],Activity [3],IC50 [4],IC50 [5],IC50 [6],IC50 [7],IC50 [8],Activity [9],IC50 [10],SMILES
994 nM,> 100000 nM,inactive,> 10000 nM,696 nM,5170 nM,606 nM,519 nM,inactive,1830 nM,S=C1O[C@@H]2CN1CC[C@@H]2Oc1ccccc1
1270 nM,> 30000 nM,inactive,5910 nM,473 nM,3320 nM,1730 nM,46 nM,inactive,2440 nM,Cc1cccc(O[C@H]2CCN3C[C@@H]2OC3=O)c1C (racemic)
> 100000 nM,> 100000 nM,inactive,> 100000 nM,> 100000 nM,> 100000 nM,> 100000 nM,> 100000 nM,inactive,> 100000 nM,Cc1cccc(OCC2CN(C)C(=O)O2)c1C (stereo not given)
5820 nM,> 100000 nM,inactive,> 10000 nM,4550 nM,> 10000 nM,> 10000 nM,158 nM,inactive,> 30000 nM,O=C1O[C@H]2CN1CC[C@@H]2Br
230 nM,> 10000 nM,inactive,1830 nM,298 nM,894 nM,191 nM,8 nM,inactive,1270 nM,CC(C)CO[C@H]1CCN2C[C@H]1OC2=O
22 nM,2650 nM,inactive,331 nM,16 nM,131 nM,18 nM,1 nM,inactive,38 nM,Cc1cccc(O[C@H]2CCN3C[C@H]2OC3=O)c1C (relative stereo)
> 100000 nM,> 100000 nM,inactive,> 100000 nM,> 100000 nM,> 100000 nM,> 100000 nM,> 100000 nM,inactive,> 100000 nM,Cc1cccc(O[C@@H]2CCNC[C@@H]2O)c1C
26 nM,6590 nM,inactive,487 nM,17 nM,158 nM,29 nM,5 nM,inactive,104 nM,O=C1O[C@@H]2CN1CC[C@@H]2Oc1ccccc1
263 nM,> 10000 nM,inactive,3760 nM,174 nM,1290 nM,403 nM,2 nM,inactive,511 nM,O=C1O[C@@H]2CN1CC[C@@H]2OCc1ccccc1
> 100000 nM,> 100000 nM,inactive,> 100000 nM,> 100000 nM,> 100000 nM,> 100000 nM,> 100000 nM,inactive,> 100000 nM,Cc1cccc(O[C@@H]2CCNC[C@H]2O)c1C
